Columns and labels:
[1] = system: cellular retinoic acid binding protein (CRABP); settings: cited from earlier work
hADSC = experiment: Chemical reprogramming of hADSC per Example 6A, OCT4-positive hCiPSC clones; format: cell-based, human
Method: In short, hADSC or hASF are seeded at 1×10^4 cells/well in a 12-well plate, or at 0.5-0.6×10^4 cells/well in a 24-well plate, and cultured overnight. The next day, the medium is replaced with Stage I induction medium (Knockout DMEM supplemented with 2% B27 supplement, 1% KSR, 1% GlutaMAX, 1% NEAA, 1% penicillin-streptomycin, […] Vc2p, 5 mM LiCl, 1 mM NAM, 20 ng/mL BMP4, 5 μM CHIR999021, 10 μM 616452, 2 μM TTNPB, 0.5 μM SAG, 2 μM EPZ5676, 0.05 μM DZNep, 1 μM ruxolitinib, 0.5 μM VTP50469, 1 μM HY-10249A (CAS No. 842148-40-7), 0.2 μM JNKIN8, and 0.2 μM SETD2-IN-1), and cultured under hypoxic conditions (5% 02) until a monolayer of epithelial-like cells appears and reaches approximately 100% confluence. hADSC cells typically require 8-10 days, and hASFs typically require 9-16 days. […]
OCT4 immunofluorescent staining is performed on the obtained hCiPSC clones, with OCT4 positivity serving as an indicator of hCiPSC clones. The reprogramming efficiency of the method is calculated by dividing the number of OCT4-positive clones by the number of initial hADSC or hASFs plated. […]

For `CC(C)(C)c1cc(C(=O)/C=C/c2ccc(C(=O)O)cc2)cc(C(C)(C)C)c1` [Ch 55, 4-[(1E)-3-[3,5-bis(1,1-Dimethylethyl)phenyl]-3-oxo-1-propenyl]benzoic acid], the “affinity for cellular retinoic acid binding protein (CRABP)” value [1] is given as “low affinity”.

In the case of `CCc1c(C#N)c(SC(C(N)=O)c2ccccc2)nc(N2CCC(N)CC2)c1C#N` (stereo not drawn) [GSK3685032], the “transformation into pluripotent stem cells vs control” value (hADSC; 6+4+8, added to Stage II induction medium (RA 5 μM, GSK3685032 0.02 μM), FIG. 29) is reported as “significantly improve the transformation of LIN28A-positive monolayer epithelial-like cells into pluripotent stem cells”.

With `O=C(NNS(=O)(=O)c1ccccc1F)c1cc(F)cc(-c2ccccn2)c1` [WM1119] the transformation efficiency (hADSC; 8+4+8 culture method, HATi 0.5 μM in stage I induction medium, FIG. 27A) was “about 2.4%”.

— patent publication US20250340848A1, “METHODS FOR CHEMICAL REPROGRAMMING AND PLURIPOTENT STEM CELLS” (Peking University, priority 2022, published 2025)
